Reference: patent US7514094B2, “Pesticidal composition” (Ishihara Sangyo Kaisha, Ltd., priority 2000, dated 2009)

Legend:
Format in all cases: in vivo
[1] = test system: Western Flower Thrips Frankliniella occidentalis; test: Insecticidal test of Western Flower Thrips on potted eggplant, spray; settings: 48 h
Source text: Insecticidal test of Western Flower Thrips Frankliniella occidentalis
An agrochemical liquid diluted to a predetermined concentration was applied by a spray gun to a 10 to 12 foliate eggplant having Western Flower Thrips Frankliniella occidentalis parasitic thereon in a pot so as to make the eggplant fully wet with the agrochemical liquid, and the pot was placed in a greenhouse. The numbers of the parasitic insects were counted before treatment and 2 days after the treatment, and a Percent Control was calculated in the same manner as in Test Example 1.
Also, a theoretical value of the Percent Control was calculated in accordance with the Colby formula in the same manner as in Test Example 1 and the results are shown in parenthesis in the following Table 3.

Thrips palmi [2] = test: Insecticidal test (1) of Thrips palmi on potted eggplant, spray; settings: Compound No. 1 0 ppm, 3 days after treatment
Description: Insecticidal test (1) of Thrips palmi
An agrochemical liquid diluted to a predetermined concentration was applied by a spray gun to a 10 to 12-foliate eggplant having Thrips palmi parasitic thereon in a pot so as to make the eggplant fully wet with the agrochemical liquid and the pot was placed in a greenhouse. The numbers of the parasitic insects were counted before treatment and three days after the treatment, and a Percent Control was calculated in accordance with the following formula and the results are shown in the following Table 1. Percent Control=100−((Ta×Cb)/(Tb×Ca)×100) • Ta: Number of insects per treated plants after treatment • Tb: Number of insects per treated plants before treatment • Ca: Number of insects per untreated plants after treatment • Cb: Number of insects per untreated plants before treatment
Also, a theoretical value of the Percent Control was calculated in accordance with the following Colby formula.
When value of the Percent Control is higher than the theoretical value (%) (in accordance with the Colby formula), it is considered that the pesticidal composition of the present invention achieves a synergistic pesticidal effect. The theoretical values of the Percent Control calculated in accordance with the Colby formula are shown in parentheses in the following Table 1. […]

Thrips palmi [3] = test: Insecticidal test (2) of Thrips palmi on potted eggplant, spray; settings: Compound No. 1 0 ppm, 7 days after treatment
Description: Insecticidal test on (2) of Thrips palmi
An agrochemical liquid diluted to a predetermined concentration was applied by a spray gun to a 10 to 12 folite eggplant having Thrips palmi parasitic thereon in a pot so as to make the eggplant fully wet with the agrochemical liquid and the pot was placed in a greenhouse.
The numbers of the parasitic insects were counted […] before treatment and 7 days after the treatment, and a Percent Control was calculated in the same manner as in Test Example 1, and the results are shown in the following Table 2.
Also, a theoretical mortality value (%) was calculated in accordance with the following Colby formula. When value of the Percent Control is higher than the theoretical value of the Percent Control (in accordance with the Colby formula), it is considered that the pesticidal composition of the present invention achieves a synergistic pesticidal effect. The theoretical values of the Percent Control calculated in accordance with the Colby formula are shown in parentheses in the following Table 2. Theoretical value of the Percent Control=100−(X×Y)/100 • X: 100−(Percent Control in case of treating with Compound No. 1 only) • Y: 100−(Percent Control in case of treating with Chlorfluazuron only)

Thrips palmi [4] = test: Insecticidal test of Thrips palmi (test in a vinyl house); settings: 288 h
Description: Insecticidal test of Thrips palmi (test in a vinyl house)
An agrochemical liquid diluted to a predetermined concentration was applied by a shoulder sprayer on a 6 to 8 foliate eggplant having Thrips palmi parasitic thereon in an amount of 100 l per 10 are. The numbers of the parasitic insects were counted before treatment and 12 days after the treatment, and a Percent Control was calculated in the same manner as in Test Example 1, and the results are shown in the following Table 4.
Also, a theoretical value of the Percent Control […] calculated in accordance with the Colby formula in the same manner as in Test Example 2 are shown in parenthesis in the following Table 4.

Row | Structure (SMILES) | mortality at 25 ppm [1] [%] | Percent Control (Thrips palmi [2]; Flufenoxuron 12.5 ppm) [%] | Percent Control (Thrips palmi [2]; Flufenoxuron 25 ppm) [%] | Percent Control (Thrips palmi [3]; Chlorfluazuron 12.5 ppm) [%] | Percent Control (Thrips palmi [3]; Chlorfluazuron 25 ppm) [%] | mortality at 25 ppm (Thrips palmi [4]) [%]
1 | O=C(NC(=O)c1c(F)cccc1F)Nc1ccc(Oc2ccc(C(F)(F)F)cc2Cl)cc1F [Flufenoxuron (E-4), Flufenoxuron] | 31 | 70 | 67 | – | – | –
2 | O=C(NC(=O)c1c(F)cccc1F)Nc1cc(Cl)c(Oc2ncc(C(F)(F)F)cc2Cl)c(Cl)c1 [Chlorfluazuron (E-2), Chlorfluazuron] | – | – | – | 55 | 52 | 58
